Tested on: gegen Progesteron-11α-bernsteinsäurehalbester-ovalbumin erzeugten Antiserum
Experiment: Cross-reactivity of steroids in the radioimmunoassay for progesterone (competitive binding, 125I-labelled progesterone-3 tracer, charcoal separation)
Set-up: species or system Kaninchen
Conditions: relative to Progesteron = 100; acid buffer; heterologous system (11α-protein conjugate antiserum, 3-iodinated tracer)
Excerpt: Die vorliegende Erfindung stellt ein Radioimmunobesteck und eine Bestimmungsmethode für Progesteron zur Verfügung, welche dadurch gekennzeichnet ist, daß man in saurem Medium, vorzugsweise einem sauren Puffer, eine Flüssigkeitsprobe mit einer bekannten Menge von gegen ein Progesteron/Proteinkonjugat erzeugten Antikörpern, wobei das Protein über eine Brückengruppe in 11-Stellung, im allgemeinen 11α-Stellung, an das Progesteron gebunden ist, und mit einer bekannten Menge eines Progesteronderivats,das in 3-Stellung über eine Brücke mit einem Rest substituiert ist, welcher ein oder mehrere Atome eines Jodradioisotops trägt, inkubiert, . das in dem entstandenen Antikörper /Antigenkomplex gebundene Steroid von der freien Steroidkomnonente abtrennt und deren Radioaktivität oder die des Antikörper/Antigenkomplexes mißt. Im allgemeinen wird das Antiserum zuletzt zugesetzt, und der Indikator wird vorzugsweise zum Standard bzw. zur Probe gegeben.
Wie oben erwähnt ist die eigentliche Bestimmung eine herkömmliche radioimmunologische Bestimmung mit Bindungskonkurrenz, d.h. sie ist abhängig von der Konkurrenz zwischen unmarkiertem Progesteron und einem radiojodierten Progesteronderivat um die Bindungsstellen eines progesteronspezifischen Antikörpers. Der an den Antikörper gebundene Anteil an jodiertem Progesteron ist der Menge des vorhandenen unmarkierten Progesterons umgekehrt proportional. Dieser Anteil wird dadurch gemessen, daß man die gebundenen und freien Komponenten trennt, im allgemeinen durch Adsorption der letzteren, und die Radioaktivität der einen oder der anderen mißt.
Die bevorzugte Reagenzienkombination für die erfindungsgemäße Bestimmungsmethode besteht aus einem gegen Progesteron-11α-bernsteinsäurehalbester-ovalbumin erzeugten Antiserum und Progesteron-3-(0-carboxymethyl)-oxim-[^125J]-jodhistamin. J]-jodhistamin.
Die Bestimmung wird auf herkömmliche Weise durchgeführt, beispielsweise erstellt man einen Satz Röhrchen, die jeweils ein Aliquot an 3-jodiertem Indikator und entweder eine bekannte Menge einer Standardprogestercnlösung in einem geeigneten, von Steroid befreiten Verdünnungsmittel oder eine unbekannte Probe enthalten. Vorzugsweise gibt man den Indikator zum Standard oder zur Probe. Ein Aliquot des Antiserums wird in jedes Röhrchen gegeben, dessen Inhalt gut vermischt und stehengelassen wird, vorzugsweise bei 0 - 4°C. Die Bestimmung läßt sich jedoch auch bei höheren Temperaturen, z.B. Raumtemperatur oder 37°C, durchführen. Nach Ablauf einer gewissen Zeit, vorzugsweise 21/2 - 5 Stunden, wird jedem Röhrchen ein Aliquot eines Trennmittels zugesetzt. Das Trennmittel ist beispielsweise ein zweiter Antikörper oder (NH4)2S04, jedoch vorzugsweise Aktivkohle. Man läßt dem Trennmittel genügend Zeit, um das freie Steroid zu binden, trennt es vom Rest des Röhrcheninhalts, im Falle von Aktivkohle vorzugsweise durch Zentrifugieren, und bestimmt die Radioaktivität der festen oder flüssigen Phase. Im Falle von Aktivkohle als Adsorptionsmittel wird vorzugsweise die feste Phase, d.h. die Radioaktivität des freien (nichtantikörpergebundenen) jodierten Indikators gemessen.Andernfalls kann man eine Probe der überstehenden flüssigen Phase nehmen und zählen. Man erstellt eine Standardkurve, und die in der Probe vorliegende Menge Progesteron kann aus der Kurve interpoliert werden.
Die Kreuzreaktivität verschiedener Steroide bei der erfindungsgemäßen Bestimmungsmethode ist unten angegeben.

| SMILES | % Kreuzreaktivität |
| --- | --- |
| CC(=O)[C@H]1CC[C@H]2[C@@H]3CC=C4C[C@@H](O)CC[C@]4(C)[C@H]3CC[C@]12C [Pregnenolon] | 10,5% |
| CC(=O)[C@H]1CC[C@H]2[C@@H]3CCC4=CC(=O)CC[C@]4(C)[C@H]3CC[C@]12C [Progesteron] | 100% |
| CC(=O)[C@H]1CC[C@H]2[C@@H]3CC[C@H]4CC(=O)CC[C@]4(C)[C@H]3CC[C@]12C [5α-Pregnan-3,20-dion] | 6,0% |
| C[C@H](O)[C@H]1CC[C@H]2[C@@H]3CCC4=CC(=O)CC[C@]4(C)[C@H]3CC[C@]12C [20α-Hydroxyprogesteron] | 0,25% |
| CC(=O)[C@H]1CC[C@H]2[C@@H]3CC[C@@H]4C[C@H](O)CC[C@]4(C)[C@H]3CC[C@]12C [5ß-Pregnan-3α-01-20-on] | 8,0% |
| C[C@H](O)[C@H]1CC[C@H]2[C@@H]3CC[C@@H]4C[C@H](O)CC[C@]4(C)[C@H]3CC[C@]12C [5ß-Pregnan-3α, 20α-diol] | 0,7% |
| CC(=O)[C@@]1(O)CC[C@H]2[C@@H]3CCC4=CC(=O)CC[C@]4(C)[C@H]3CC[C@@]21C [17α-Hydroxyprogesteron] | 1,3% |
| CC(=O)[C@H]1CC[C@H]2[C@@H]3CC=C4C[C@@H](OS(=O)(=O)O)CC[C@]4(C)[C@H]3CC[C@]12C [Pregnenolonsulfat] | 0,4% |
| CC(=O)[C@H]1CC[C@H]2[C@@H]3CC=C4C[C@@H](O[C@@H]5O[C@H](C(=O)O)[C@@H](O)[C@H](O)[C@H]5O)CC[C@]4(C)[C@H]3CC[C@]12C [Pregnenolonglucuronid] | 10,0% |
| C[C@]12C[C@H](O)[C@H]3[C@@H](CCC4=CC(=O)CC[C@@]43C)[C@@H]1CC[C@@H]2C(=O)CO [Corticosteron] | 2,7% |
| C[C@]12CC[C@H]3[C@@H](CCC4=CC(=O)CC[C@@]43C)[C@@H]1CC[C@@H]2C(=O)CO [Desoxycorticosteron] | 0,01% |
